From US10369187B2, “Peptide regulators of JNK family kinases” (Vanderbilt University, priority 2017, dated 2019)

Key:
[1] = system: hemiparkinsonian ARR3 KO mice; assay: L-DOPA-induced rotations in hemiparkinsonian ARR3 KO mice; assay type: in vivo, mouse
Procedure: FIG. 10. Rescue of L-DOPA-induced rotations in ARR3 KO mice by T1A16. Data are shown as means±S.E.M. Mice were pre-tested for L-DOPA-induced rotations before receiving lentiviruses. Respective lentiviruses were injected into the dorsolateral striatum of ARR3 KO mice. WT mice received GFP. […] In contrast, selective expression of T1A16 in striatopallidal MSNs under control of the enkephaline (ENK) promoter was ineffective. […] Significance levels are by Bonferroni post hoc test across all testing sessions.
Next, arrestin-3-derived peptides T1A16 and T1A15 were investigated for activity in the animal model of L-DOPA-induced dyskinesia. It was shown that the peptides expressed as Venus fusions in the motor striatum of hemiparkinsonian mice via lentivirus-mediated gene transfer modulate the manifestations of L-DOPA-induced dyskinesia (LID). The mice lacking ARR3 have reduced LID, and restoration of ARR3 into the motor striatum via lentivirus-mediated gene transfer rescues LID in these animals.
(§1) The mice were rendered hemiparkinsonian by the unilateral injection of the dopaminergic neurotoxin 6-hydroxydopamine. Such animals develop contralateral rotations of increasing frequency in response to repeated administration of L-DOPA. ARR3 knockout mice (KO) have lower propensity than wild type (WT) animals to such rotations.

[2] = system: ASK1-MKK4/7-JNK3 signaling cascade; assay: In cell JNK3 activation assay (co-expression with HA-ASK1 and HA-JNK3α2, phospho-JNK Western blot); assay type: cell-based, African green monkey; settings: for in cell JNK3α2 activation (phospho-JNK3 densitometry): Example 2, YFP/Venus constructs with HA-ASK1, HA-JNK3α2 in COS7 cells; for JNK3 phosphorylation in cells, HA-tagged arrestins and separated domains: co-expressed with ASK1 and JNK3 in COS7 cells
Procedure: COS-7 African green monkey cells were maintained in DMEM supplemented with 10% heat-inactivated FBS (Invitrogen), penicillin, and streptomycin at 37° C. in a humidified incubator with 5% CO2. The cells were plated at 80-90% confluence and transfected using Lipofectamine 2000 (Invitrogen) according to the manufacturer's instructions. Cells were used 48 h post-transfection and serum-starved overnight before experiments.
COS-7 cells were incubated with phosphatase inhibitors (50 mM NaF and 10 mM Na3VO4) in serum-free medium for 15 min at 37° C.; washed with cold PBS; and lysed with SDS lysis buffer containing 1% SDS, 10 mM Tris (pH7.4), 10 mM NaF, 100 μM Na3VO4, 2 mM EDTA, 2 mM benzamidine and 1 mM PMSF. JNKs activity was assayed by Western blotting using an antibody specific for phosphorylated JNK to detect phosphorylated (active) JNKs^17,20,23. Whole cell lysates were boiled for 5 min and centrifuged at 10,000×g for 10 min, and the supernatants were used for Western blotting. Protein was measured using the Bio-Rad Coomassie Blue assay. The proteins were resolved on 8% SD S-PAGE and transferred to PVDF membrane (Millipore, Bedford, Mass.). Blots were incubated with the primary antibodies (Cell Signaling Technology, Inc) anti-phospho-JNK, anti-JNK, anti-HA (6E2) (1:1000 to 1:5000), followed by appropriate HRP-conjugated secondary antibodies. Protein bands were detected by enhanced chemiluminescence (ECL, Pierce), followed by exposure to x-ray film. To quantify phospho-JNKs, serial dilutions of anisomycin (1 μg/ml)-stimulated HEK-A cell lysates were used to ensure that all samples were in linear range. The values for these proteins are expressed in arbitrary units.
The JNK3 activation was next tested in cells (See FIG. 7). COS7 cells were transfected with HA-ASK1, HA-JNK3α2, and YFP-arrestin constructs to measure in cell JNK3α2 activation. Phospho-JNK3 is shown as the uppermost band in the Western analysis, and was analyzed by densitometric quantification using Quantity One software (quantification in bottom panel). […] The data were statistically analyzed by ANOVA with protein as the main factor. Significance of the difference from control (p values) is indicated.
In Cell JNK3 Activation Assay COS7 African green monkey cells were sustained in DMEM solution containing 10% heat-inactivated FBS (Invitrogen), penicillin, and streptomycin at 37° C. and 5% CO2. Cells were transfected at 90-100% confluency in 6-well plates with pcDNA3-HA-ASK1 (0.4 ug), pcDNA3-HA-JNK3α2 (0.2 ug), and pcDNA3-Venus arrestin constructs (0.2-0.6 ug) at a 1:2 ratio of DNA:Lipofectamine 2000 (Invitrogen). At 48 hrs post-transfection, the cells were incubated with phosphatase inhibitors (20 mM NaF and 1 mM Na3VO4) in PBS for 15 mins, washed twice with cold PBS, and lysed using 50 mM Tris (pH 7.8), 2 mM EDTA, 250 mM NaCl, 10% Glycerol, 0.5% NP-40, 2 mM benzamide, and 1 mM PMSF. Protein concentration was measured using the Bio-Rad Quick Start™ Bovine Serum Albumin (BSA) Standard Set. The proteins were subjected to 10% SDS-PAGE and transferred to PVDF membrane (Millipore, Bedford, Mass.). Membranes were incubated with respective primary antibodies (Cell Signaling Technology, Inc.) anti-ASK1 (#3762S), anti-phospho-JNK (#9251), anti-SAPK/JNK (#9252P), anti-GST (#2625), or anti-HA (#3724), followed by the appropriate HRP-conjugated secondary antibodies. Bands were detected by x-ray film using enhanced chemiluminescence (ECL, Pierce) and quantification was done using the software Quantity One (BioRad).

[3] = system: ARR3-dependent activation of the JNK pathway; assay: Suppression of ARR3-dependent JNK activation (peptide co-expressed with full-length ARR3, Western blot); assay type: cell-based; settings: for JNK activity on co-expression with full-length ARR3, comparison of shorter peptides: Western blot
From the text: FIG. 9. The ARR3-derived T1A15 peptide is capable of reducing ARR3-dependent activation of the JNK pathway. (A) Dose-dependent action of Venus-T1A15 on the JNK activity. Upper blot panel—T1A15 was expressed at increasing concentration with full-length ARR3. Cells expressing GFP (negative control) and full-length ARR3 only (positive control) are shown for comparison. Note the reduced activity of HA-JNK3α2 expressed in the cells as well as that of endogenous INK isoforms (p54 and p46 bands). The lower panels show corresponding expression of GFP, full-length ARR3 and increasing concentrations of Venus-T1A15. (B) Comparison of the activity of shorter ARR3-derived peptides. Three shorter peptides, T1A15, T1A14, and T1A13, were co-expressed with full-length ARR3, and the INK activity assessed by western blot.
First, the action of arrestin-3-derived peptides expressed in cultured cells on JNK3 activity was investigated.

WT hemiparkinsonian mice = assay: L-DOPA-induced rotations in hemiparkinsonian WT mice; assay type: in vivo, mouse; settings: peptide expressed under CMV promoter in striatal neurons, versus GFP
From the text: FIG. 11. Inhibition of L-DOPA-induced rotations in WT mice by ARR3-derived peptide T1A15 inhibiting JNK3. The arrestin-3-derived peptide T1A15 expressed under CMV promoter in striatal neurons inhibited rotations in WT mice as compared to WT mice expressing GFP.
as §1

MKK4 = target: T1, MKK4 (Homo sapiens, UniProt P45985); assay: MBP pull-down of purified MKK4; assay type: binding; settings: MBP pull-down, purified proteins
T1 sequence (P45985 1-399): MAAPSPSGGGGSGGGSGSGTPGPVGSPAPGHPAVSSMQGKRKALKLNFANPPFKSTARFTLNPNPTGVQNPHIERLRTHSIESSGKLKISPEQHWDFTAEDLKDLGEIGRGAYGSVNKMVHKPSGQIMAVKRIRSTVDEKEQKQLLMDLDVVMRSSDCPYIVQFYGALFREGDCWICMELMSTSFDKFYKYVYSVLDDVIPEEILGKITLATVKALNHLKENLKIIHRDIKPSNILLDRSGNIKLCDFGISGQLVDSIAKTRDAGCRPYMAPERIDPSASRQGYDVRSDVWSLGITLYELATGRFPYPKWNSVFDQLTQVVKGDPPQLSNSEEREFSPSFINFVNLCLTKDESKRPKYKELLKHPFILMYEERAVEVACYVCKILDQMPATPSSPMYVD
Procedure: T1A was expressed in E. coli as an MBP-fusion and purified it on an amylose column^23. The ability of purified GST-MKK4 or GST-MKK7 (FIG. 1A) to bind MBP-T1A immobilized on an amylose column was tested in an in vitro pull-down assay, where MBP and MBP-arrestin-3 served as negative and positive controls, respectively (FIG. 1B). MBP-T1A, but not control MBP, effectively retained both kinases (FIG. 1B). […] Next, it was tested whether T1A binds the uppermost kinase in the cascade, ASK1. Because ASK1 is not available in purified form, HA-tagged ASK1 and YFP-tagged T1A (using YFP as a control) were co-expressed in COS7 cells, lysed the cells, and immunoprecipitated YFP constructs with anti-GFP antibody (FIG. 1C).
To make MBP-fusions containing arrestin-2/3 elements, the cDNAs encoding arrestin fragments were subcloned into pMal-p2T (generous gift from Dr. Keiji Tanaka, Tokyo Institute of Medical Science) between Eco RI and Xho I sites in frame with MBP, as described^23. MBP-Arr3 (full-length arrestin-3) was created by subcloning the corresponding cDNA into pMal-p2T between Eco RI and Not I sites^23. All MBP-arrestin-3 fusion proteins contained the same […] (SEQ ID NO:29) linker between MBP and arrestin-3 or its fragments. The MBP protein used as negative control was purified using empty pMal-p2T vector containing the same linker with 10 additional residues: […] (SEQ ID NO:30). MBP fusions were purified, as described^23. MBP pull-down was performed, as described^23. Briefly, Indicated MBP fusions (10-30 μg in 50 μL 20 mM Tris/150 mM NaCl) were immobilized on amylose resin (25 μL, 50% slurry, New England Biolabs) for 1 h at 4° C. with slight rotation. Purified, as described^40, MKK4/7 (10 μg in 50 μL 20 mM Tris/150 mM NaCl) were added to the immobilized MBP fusions and rotated gently for 2 h at 4° C. Samples were transferred to centrifuge filters (Durapore®-PVDF-0.65 μm), washed three times with 50 mM HEPES-Na, pH 7.3, 150 mM NaCl. The proteins were eluted by 100 μl of elution buffer (wash buffer containing 50 mM maltose) by gentle rotation for 5 min at 4° C. Eluates were analyzed by SDS-PAGE and Western blotting.

MKK4-JNK3 module = MKK4-JNK3 module (Homo sapiens, UniProt P45985+P53779); settings: previously found, reference 20; cited from earlier work
MKK4-JNK3 module, sequence (P53779 whole entry, one chain of several): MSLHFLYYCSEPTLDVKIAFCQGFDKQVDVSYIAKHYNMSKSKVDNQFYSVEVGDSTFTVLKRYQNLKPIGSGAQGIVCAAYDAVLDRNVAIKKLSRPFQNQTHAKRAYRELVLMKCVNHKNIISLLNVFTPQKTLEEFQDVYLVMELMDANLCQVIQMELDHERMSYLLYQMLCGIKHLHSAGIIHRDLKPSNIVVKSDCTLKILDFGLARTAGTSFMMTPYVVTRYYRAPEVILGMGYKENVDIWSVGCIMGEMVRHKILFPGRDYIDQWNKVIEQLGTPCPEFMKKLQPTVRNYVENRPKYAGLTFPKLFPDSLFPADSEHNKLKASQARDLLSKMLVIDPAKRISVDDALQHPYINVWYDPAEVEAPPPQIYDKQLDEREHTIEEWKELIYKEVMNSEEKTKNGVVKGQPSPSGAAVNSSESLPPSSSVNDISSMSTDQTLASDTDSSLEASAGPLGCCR

MKK7-JNK3 module = MKK7-JNK3 module (Homo sapiens, UniProt O14733+P53779); settings: previously found, reference 20; cited from earlier work
MKK7-JNK3 module, sequence (O14733 whole entry): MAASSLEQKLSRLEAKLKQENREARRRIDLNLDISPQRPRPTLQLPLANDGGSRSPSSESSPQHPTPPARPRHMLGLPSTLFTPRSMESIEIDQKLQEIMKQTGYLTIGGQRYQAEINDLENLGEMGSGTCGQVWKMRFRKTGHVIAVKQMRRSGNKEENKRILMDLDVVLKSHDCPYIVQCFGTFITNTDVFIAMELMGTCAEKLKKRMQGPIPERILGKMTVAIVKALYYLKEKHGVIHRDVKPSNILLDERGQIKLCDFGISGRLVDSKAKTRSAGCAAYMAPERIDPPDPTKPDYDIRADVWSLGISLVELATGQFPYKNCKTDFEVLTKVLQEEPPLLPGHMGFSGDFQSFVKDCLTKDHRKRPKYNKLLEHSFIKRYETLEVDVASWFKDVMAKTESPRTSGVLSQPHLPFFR
MKK7-JNK3 module, sequence (P53779 whole entry): as the sequence (P53779 whole entry, one chain of several) above

For VFKKSSPNCKLTVYLG (bovine) [T1A16], the “L-DOPA-induced rotations in ARR3 KO mice, expression in striatonigral MSNs” value ([1]; lentivirus, dynorphine (DYN) promoter) was “fully rescued rotations in A3KO mice”, the “L-DOPA-induced rotations in ARR3 KO mice, expression in striatopallidal MSNs” value ([1]; lentivirus, enkephaline (ENK) promoter) was “ineffective” and the “L-DOPA-induced rotations in ARR3 KO mice” value ([1]; peptide expressed in striatum via lentivirus, 6-hydroxydopamine lesion) was “fully restores rotations in ARR3 KO mice to the level of that in WT mice”. For the same molecule, the “in cell JNK3α2 activation (phospho-JNK3 densitometry)” value (shortened to “in cell JNK3α2 activation”) [2] was “facilitates JNK3 activation” and the “JNK3 activation at increasing peptide expression” value ([2]; Example 3, T1A16-Venus expressed in Cos7 cells) was “dose-dependently activates JNK3”.

In the case of VFKKSSPNCKLTV (bovine) [T1A13], the “JNK activity on co-expression with full-length ARR3, comparison of shorter peptides” value (shortened to “JNK activity on co-expression”) [3] is reported as “no effect”.

In the case of TRVFKKSSPNCKLTV (bovine) [T1A15], the “L-DOPA-induced rotations in WT mice” value (WT hemiparkinsonian mice) is reported as “able to suppress the rotational behavior”, the “in cell JNK3α2 activation” value [2] is reported as “inhibit JNK3 activation” and the “ARR3-dependent JNK activation at increasing peptide expression” value ([3]; Venus-T1A15 co-expressed with full-length ARR3) is reported as “reducing arrestin-3-dependent activation of JNK3 as well as other JNK isoforms in a dose dependent manner”. The “JNK activity on co-expression” value [3] was “effectively suppressed”.

With KKSSPNCKLTVYLG (bovine) [T1A14] the “JNK activity on co-expression” value [3] was “marginally effective”.

With “arrestin-3: full-length arrestin-3 (bovine) protein, scaffold of ASK1-MKK4/7-JNK3 cascade” the “in cell JNK3α2 activation” value [2] was “facilitates JNK3 activation”, the “JNK3 phosphorylation in cells, YFP fusions” value ([2]; YFP fusions co-expressed with JNK3 and ASK1 in COS7 cells) was “increased the level of JNK3 phosphorylation” and the “JNK3 phosphorylation in cells, HA-tagged arrestins and separated domains” value [2] was “significantly increases JNK3 phosphorylation in cells”. For the same molecule, the “interaction with MKK4 compared with MKK7” value (MKK4) was “stronger interaction with MKK4 than with MKK7”, the “JNK activity on co-expression” value [3] was “induced the JNK activation” and the “optimal concentration for scaffolding MKK4-JNK3 module” value (MKK4-JNK3 module) was ~0.6 µM. The “optimal concentration for scaffolding MKK7-JNK3 module” value (MKK7-JNK3 module) was ~6 µM.

B1: arrestin-2: full-length non-visual arrestin-2 protein, does not promote JNK3 activation (protein, UniProt P17870 1-418, looked up)
chain: MGDKGTRVFKKASPNGKLTVYLGKRDFVDHIDLVEPVDGVVLVDPEYLKERRVYVTLTCAFRYGREDLDVLGLTFRKDLFVANVQSFPPAPEDKKPLTRLQERLIKKLGEHAYPFTFEIPPNLPCSVTLQPGPEDTGKACGVDYEVKAFCAENLEEKIHKRNSVRLVIRKVQYAPERPGPQPTAETTRQFLMSDKPLHLEASLDKEIYYHGEPISVNVHVTNNTNKTVKKIKISVRQYADICLFNTAQYKCPVAMEEADDTVAPSSTFCKVYTLTPFLANNREKRGLALDGKLKHEDTNLASSTLLREGANREILGIIVSYKVKVKLVVSRGGLLGDLASSDVAVELPFTLMHPKPKEEPPHREVPEHETPVDTNLIELDTNDDDIVFEDFARQRLKGMKDDKEEEEDGTGSPRLNDR
modifications: full-length
For B1, the “JNK3 phosphorylation in cells, HA-tagged arrestins and separated domains” value [2] was “does not”.
